Source: US20260049084A1, “ENPP1 MODULATORS AND PRODUCTS AND USES THEREOF” (Gossamer Bio Services, Inc., priority 2022, published 2026)

What was measured:
[1] = target: Recombinant human ENPP1 protein (Homo sapiens (Human), UniProt P22413); experiment: ENPP1 cGAMP Biochemical Assay; conditions: 0.5 nM ENPP1, 1000 nM 2′3′-cGAMP substrate, TR-FRET
Outline: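 Recombinant human ENPP1 (final 0.5 nM) preincubated with compound 30 min at room temperature in 50 mM Tris pH 7.5, 1 mM TCEP, 2 mM MgCl2, 0.005% Tween20; 2′3′-cGAMP (1000 nM final) added, 60 min at 25 °C. AMP/GMP product detected by TR-FRET antibody/tracer competition (2 nM), 120 min.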

[2] = target: Recombinant human ENPP3 protein (Homo sapiens (Human), UniProt O14638); experiment: ENPP3 cGAMP Biochemical Assay; conditions: 70.5 nM ENPP3, 120 μM 2′3′-cGAMP substrate, TR-FRET
Recombinant human ENPP3 protein, sequence (O14638 whole entry): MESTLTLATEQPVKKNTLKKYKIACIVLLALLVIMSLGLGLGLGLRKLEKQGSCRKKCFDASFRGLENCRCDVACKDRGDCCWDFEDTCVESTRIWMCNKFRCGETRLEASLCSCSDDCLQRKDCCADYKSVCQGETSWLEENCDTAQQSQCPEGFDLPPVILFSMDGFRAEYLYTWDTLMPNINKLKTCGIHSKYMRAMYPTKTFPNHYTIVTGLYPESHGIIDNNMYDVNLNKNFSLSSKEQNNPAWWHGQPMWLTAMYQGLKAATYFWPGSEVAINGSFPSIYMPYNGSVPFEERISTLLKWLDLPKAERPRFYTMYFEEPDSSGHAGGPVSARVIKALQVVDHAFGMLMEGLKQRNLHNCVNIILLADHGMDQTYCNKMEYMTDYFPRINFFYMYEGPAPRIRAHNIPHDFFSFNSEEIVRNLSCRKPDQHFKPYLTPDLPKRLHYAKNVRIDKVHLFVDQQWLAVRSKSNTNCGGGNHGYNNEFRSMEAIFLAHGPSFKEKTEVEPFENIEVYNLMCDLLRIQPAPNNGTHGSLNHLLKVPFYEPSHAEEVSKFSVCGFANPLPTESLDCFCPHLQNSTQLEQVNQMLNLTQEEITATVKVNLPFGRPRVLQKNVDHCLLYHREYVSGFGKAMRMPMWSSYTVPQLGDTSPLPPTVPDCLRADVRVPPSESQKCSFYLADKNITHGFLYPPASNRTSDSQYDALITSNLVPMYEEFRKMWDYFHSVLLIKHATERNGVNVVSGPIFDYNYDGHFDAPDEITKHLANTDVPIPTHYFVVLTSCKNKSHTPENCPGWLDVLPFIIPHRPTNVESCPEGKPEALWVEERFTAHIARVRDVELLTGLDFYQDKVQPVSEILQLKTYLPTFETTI
Outline: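 Compound was preincubated 30 min at room temperature with recombinant human ENPP3 (final 70.5 nM) in Tris pH 7.5 with Mg, Ca, Zn and TCEP. 2′3′-cGAMP (120 μM final) was then hydrolysed for 60 min at 25 °C. AMP/GMP product was detected by TR-FRET tracer-displacement immunoassay after 120 min.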

[3] = target: carbonic anhydrase I enzyme (Homo sapiens (Human), UniProt P00915); experiment: Carbonic Anhydrase 1 Enzymatic Assay; assay type: biochemical; conditions: enzyme from human erythrocyte, 500 μM 4-nitrophenyl acetate, absorbance 400 nm; read-out: CA I IC50
carbonic anhydrase I enzyme, sequence (P00915 whole entry): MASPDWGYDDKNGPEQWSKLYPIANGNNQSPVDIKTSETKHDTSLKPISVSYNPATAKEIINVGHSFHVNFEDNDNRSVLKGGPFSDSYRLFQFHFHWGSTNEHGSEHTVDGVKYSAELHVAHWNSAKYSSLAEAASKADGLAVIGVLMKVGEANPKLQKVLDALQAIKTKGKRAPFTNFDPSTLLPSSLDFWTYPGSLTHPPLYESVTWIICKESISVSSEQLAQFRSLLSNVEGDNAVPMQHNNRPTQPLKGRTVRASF
Protocol: Carbonic Anhydrase 1 Enzymatic Assay
(§1) Test compound and/or vehicle was preincubated with carbonic anhydrase I enzyme (15 μg/ml) isolated from human erythrocyte in reaction buffer (50 mM MOPS solution pH 7.5) for 15 minutes at 25° C. The reaction was initiated by addition of 500 μM 4-nitrophenyl acetate and incubated for 30 minutes. The plate was read on a spectrophotometer (Absorbance: 400 nm)

[4] = target: carbonic anhydrase II enzyme (Homo sapiens (Human), UniProt P00918); experiment: Carbonic Anhydrase 2 Enzymatic Assay; assay type: biochemical; conditions: enzyme from human erythrocyte, 500 μM 4-nitrophenyl acetate, absorbance 400 nm; read-out: CA II IC50
Protocol: Carbonic Anhydrase 2 Enzymatic Assay
as §1, with “II” for “I”

Recombinant human ENPP1 protein, sequence (P22413 whole entry): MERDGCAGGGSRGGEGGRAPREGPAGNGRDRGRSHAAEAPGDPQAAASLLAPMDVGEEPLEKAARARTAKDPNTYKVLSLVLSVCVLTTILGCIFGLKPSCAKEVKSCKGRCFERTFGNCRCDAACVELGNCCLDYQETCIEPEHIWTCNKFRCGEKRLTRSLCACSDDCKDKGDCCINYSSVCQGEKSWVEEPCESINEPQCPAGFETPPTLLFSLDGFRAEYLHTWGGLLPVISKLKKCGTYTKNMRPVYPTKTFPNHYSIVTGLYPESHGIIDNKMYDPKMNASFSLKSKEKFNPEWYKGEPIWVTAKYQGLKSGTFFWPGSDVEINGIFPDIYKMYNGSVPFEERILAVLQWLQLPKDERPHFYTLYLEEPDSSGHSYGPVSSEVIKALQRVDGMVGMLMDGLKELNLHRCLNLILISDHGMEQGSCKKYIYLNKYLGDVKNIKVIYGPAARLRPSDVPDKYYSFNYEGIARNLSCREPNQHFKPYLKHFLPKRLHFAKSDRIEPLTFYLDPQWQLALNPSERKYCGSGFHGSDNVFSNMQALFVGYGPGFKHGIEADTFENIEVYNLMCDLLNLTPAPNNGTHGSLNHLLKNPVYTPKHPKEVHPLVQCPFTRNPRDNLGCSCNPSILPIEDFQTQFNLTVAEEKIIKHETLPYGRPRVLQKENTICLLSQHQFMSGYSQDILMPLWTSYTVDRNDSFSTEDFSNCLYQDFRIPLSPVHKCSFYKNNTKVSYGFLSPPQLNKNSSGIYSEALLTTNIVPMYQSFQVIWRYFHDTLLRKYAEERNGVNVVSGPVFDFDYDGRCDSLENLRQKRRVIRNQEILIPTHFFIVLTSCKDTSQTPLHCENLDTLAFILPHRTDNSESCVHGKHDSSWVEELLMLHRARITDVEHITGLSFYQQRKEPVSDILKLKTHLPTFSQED

Row | Structure (SMILES) | IC50 [1] [nM] | IC50 [2] [nM] | IC50 [3] [nM] | IC50 [4] [nM]
1 | N#CCn1nc(Cl)c2c(NCC3CCN([S@@](N)(=O)=NC#N)CC3)ccnc21 [Compound 15E, (S)-4-(((3-chloro-1-(cyanomethyl)-1H-pyrazolo[3,4-b]pyridine-4-yl)amino)methyl)-N′-cyanopiperidine-1-sulfonimidamide] | < 10 | < 10 | 100 to 1000 | ≥ 1000
2 | N=S(N)(=O)c1ccc(CNc2ccnc3[nH]nc(-c4ccccc4)c23)cc1 (centres unmarked) [Compound 1B, 4-(((3-phenyl-1H-pyrazolo[3,4-b]pyridin-4-yl)amino)methyl)benzenesulfonimidamide] | 10 to 100 | 10 to 100 | 100 to 1000 | 100 to 1000
3 | CCn1nc(Cl)c2c(NCC3CCN(S(=N)(=O)CCC#N)CC3)ccnc21 (centres unmarked) [Compound 14E, 3-(4-(((3-chloro-1-ethyl-1H-pyrazolo[3,4-b]pyridin-4-yl)amino)methyl)piperidine-1-sulfonimidoyl)propanenitrile] | 10 to 100 | ≥ 1000 | ≥ 1000 | ≥ 1000
4 | CCn1ncc2c(NCC3CCN(S(=N)(N)=O)CC3)ccnc21 (centres unmarked) [Compound 1A, 4-(((1-ethyl-1H-pyrazolo[3,4-b]pyridin-4-yl)amino)methyl)piperidine-1-sulfonimidamide] | 10 to 100 | 100 to 1000 | 100 to 1000 | ≥ 1000
5 | C#CCn1nc(Cl)c2c(NCC3CCN(S(N)(=O)=NC)CC3)ccnc21 (centres unmarked) [Compound 15D, 4-(((3-chloro-1-(prop-2-yn-1-yl)-1H-pyrazolo[3,4-b]pyridine-4-yl)amino)methyl)-N′-methylpiperidine-1-sulfonimidamide] | < 10 | 10 to 100 | ≥ 1000 | ≥ 1000

Continued, values first:

Row | IC50 [1] [nM] | IC50 [2] [nM] | IC50 [3] [nM] | IC50 [4] [nM] | Structure (SMILES)
6 | < 10 | < 10 | 100 to 1000 | ≥ 1000 | C#CCn1nc(Cl)c2c(NCc3ccc([S@](=N)(=O)NC#N)cc3)ccnc21 [Compound 12J, (R)-4-(((3-chloro-1-(prop-2-yn-1-yl)-1H-pyrazolo[3,4-b]pyridin-4-yl)amino)methyl)-N-cyanobenzenesulfonimidamide]
7 | 100 to 1000 | ≥ 1000 | ≥ 1000 | ≥ 1000 | CCn1ncc2c(NCc3ccc(S(N)(=O)=NC)cc3)ccnc21 (centres unmarked) [Compound 3A, 4-(((1-ethyl-1H-pyrazolo[3,4-b]pyridin-4-yl)amino)methyl)-N′-methylbenzenesulfonimidamide]
8 | 10 to 100 | 100 to 1000 | 10 to 100 | ≥ 1000 | CCn1nc(Br)c2c(NCc3ccc(S(=N)(N)=O)cc3)ccnc21 (centres unmarked) [Compound 2B, 4-(((3-bromo-1-ethyl-1H-pyrazolo[3,4-b]pyridin-4-yl)amino)methyl)benzenesulfonimidamide]
9 | < 10 | < 10 | 100 to 1000 | 100 to 1000 | N#CCn1nc(Cl)c2c(NCC3CCN([S@](N)(=O)=NC#N)CC3)ccnc21 [Compound 15F, (R)-4-(((3-chloro-1-(cyanomethyl)-1H-pyrazolo[3,4-b]pyridin-4-yl)amino)methyl)-N′-cyanopiperidine-1-sulfonimidamide]
10 | < 10 | < 10 | 100 to 1000 | ≥ 1000 | C#CCn1nc(Cl)c2c(NCc3ccc(S(N)(=O)=NC#N)cc3)ccnc21 (centres unmarked) [Compound 12I, 4-(((3-chloro-1-(prop-2-yn-1-yl)-1H-pyrazolo[3,4-b]pyridin-4-yl)amino)methyl)-N′-cyanobenzenesulfonimidamide]
11 | 10 to 100 | ≥ 1000 | 100 to 1000 | ≥ 1000 | CCn1ncc2c(NCc3ccc(S(=N)(N)=O)cc3)ccnc21 (centres unmarked) [Compound 2A, 4-(((1-ethyl-1H-pyrazolo[3,4-b]pyridin-4-yl)amino)methyl)benzene sulfonimidamide]
